The values below come from patent US20230080670A1, “METHODS AND COMPOSITIONS FOR TREATING TUMORS USING TRANSCRIPTION INHIBITION AND DNA DAMAGE” (ARIZONA BOARD OF REGENTS ON BEHALF OF THE UNIVERSITY OF …, priority 2019, published 2023).

Entries after “also recorded” stand apart in the source; their conditions may differ.

The subject of data set [1] is A673 cells. The data set can be described thus: MTT cell survival assay, A673 Ewing's sarcoma cell line. It is filed as cell-based. The note with it: 96 hours. A general note: Formazan colour is commonly taken as a measure of viable cells.
Method: It was tested whether the functional interaction of EWS or FUS with the fusion protein driving Ewing's sarcoma would make these cells exceptionally sensitive to transcription inhibitors.
The DNA damage agent SN38 and the transcription inhibitor flavopiridol were titrated, and cell survival was measured after 96 hours using an MTT assay (see FIG. 3A).
Data set [2] deals with gammaH2Ax. The data set can be described thus: Western blot of gammaH2Ax DNA damage response, A673 cells. Type of data set: cell-based. A general note: In western blotting, separated proteins are transferred to a membrane and probed.
For data set [3], the system named is gammaH2Ax. Nature of the data set: Western blot of gammaH2Ax DNA damage response, HEK293 cells. Type of data set: cell-based. As to conditions: flavopiridol added to SN38, 24 hours. On the procedure:
All doses shown are in nanomolar, nM.
Western blot analysis: Protein lysates concentrations were quantified using BCA Protein Assay (Pierce). 5-10 ug of protein sample was loaded onto 7.5% SDS-PAGE gels. Standard western blot protocols were followed. Blots were transferred at 500 mA, blocked in 5% nonfat dried milk in TBS-T, and incubated overnight with primary antibody at 4° C. Blots were washed in TBS-T, incubated in secondary antibody for 1 hour at room temperature, washed again in TBS-T, and imaged after the addition of SuperSignal™ West Pico PLUS Chemiluminescent substrate (Thermo Scientific). Western blots were imaged on the ChemiDoc.

The subject of data set [4] is patients. The note with it: therapeutic doses; cited from earlier work.

Consider `CN1CC[C@H](c2c(O)cc(O)c3c(=O)cc(-c4ccccc4Cl)oc23)[C@H](O)C1` [flavopiridol], for which the “toxicity (cell survival, MTT assay)” value in data set [1] (100 nM flavopiridol alone) is listed as “No toxicity”. Moreover, in data set [2] (A673 cells, 10 nM, 50 nM and 100 nM flavopiridol), the “inhibition of the gamma H2Ax response to DNA damage (quantification of western blots)” value is reported as “dose-dependent inhibition”. The “effect on phosphorylation of histone to gammaH2Ax (DNA damage response)” value in data set [2] (transcription inhibitor added to SN38, 24 hours, Ewing's sarcoma cell line) is “prevented this event”. For the same compound, the “effect on gammaH2Ax response to DNA damage” value in data set [3] is listed as “does not prevent the normal cellular response to DNA damage; also recorded: had no such effect”. The toxicity in patients result in data set [4] is recorded as “significant toxicity”.
Consider `CCc1c2c(nc3ccc(O)cc13)-c1cc3c(c(=O)n1C2)COC(=O)[C@]3(O)CC` [SN38], for which, in data set [1] (1.3 nM SN38 alone), the “toxicity (cell survival, MTT assay)” value is given as “No toxicity”. Besides, the “gammaH2Ax DNA damage response” value in data set [2] (SN38 for 24 hours without transcription inhibitor, Ewing's sarcoma cell line) was “standard DNA damage response”.
